Drawing on US20210238225A1, “PEPTIDOMIMETIC INHIBITORS OF THE PEPTIDYL-PROLYL CIS/TRANS ISOMERASE (PIN1)” (DANA-FARBER CANCER INSTITUTE, INC., priority 2018, published 2021), this text covers Ki for eight compounds.

The structures appear in SMILES notation. Non-standard residues stand in square brackets, D forms with d. Residues, ends and D or L forms follow the SMILES beside them. *: point of attachment. alloThr(PO3H2) = C[C@H](OP(=O)(O)O)[C@H](N)C(=O)O; 2Nal = N[C@@H](Cc1ccc2ccccc2c1)C(=O)O; Met(O2) = CS(=O)(=O)CC[C@H](N)C(=O)O; Cit = NC(=O)NCCC[C@H](N)C(=O)O; aThr = C[C@H](O)[C@H](N)C(=O)O; Pip = O=C(O)[C@@H]1CCCCN1; ClAc = O=C(CCl)*

The target of the experiment is Pin1 (GST-Pin1) (Homo sapiens, UniProt Q13526). Briefly: Fluorescence polarization (FP) assay, binding to Pin1. As to conditions: competition with fluorescein-labeled peptide probe; 12 hours pre-incubation at 4° C.; Kenakin Ki equation; read-out: Ki, μM (FP Assay). A general note: In fluorescence polarisation assays a small probe gives low polarisation when free and higher when bound to something large.
Chain of Pin1 (GST-Pin1) (Q13526 whole entry): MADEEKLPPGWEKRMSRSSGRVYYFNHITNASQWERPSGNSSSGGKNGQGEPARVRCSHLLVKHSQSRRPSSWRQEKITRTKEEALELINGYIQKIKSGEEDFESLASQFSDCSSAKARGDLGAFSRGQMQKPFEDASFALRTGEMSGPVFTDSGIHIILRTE
The Ki is a dissociation constant, usually derived from enzyme kinetics or from competition with a known ligand. As for `COC(=O)CC[C@H](NC(=O)CCl)C(=O)N1CCCC[C@H]1C(=O)N[C@@H](Cc1c[nH]c2ccccc12)C(=O)N[C@@H](Cc1ccc(O)cc1)C(=O)NCc1ccc(C)cc1` (single isomer, unassigned) [Compound 11-26], the inhibition constant (Ki) was greater than 10 µM.
With `COC(=O)CC[C@H](NC(=O)CCl)C(=O)N1CCCC[C@H]1C(=O)N[C@@H](Cc1c[nH]c2ccccc12)C(=O)N[C@@H](CCCNC(N)=O)C(N)=O` [Compound 2, Methyl (S)-5-((S)-2-(((S)-1-(((S)-1-amino-1-oxo-5-ureidopentan-2-yl)amino)-3-(1H-indol-3-yl)-1-oxopropan-2-yl)carbamoyl)piperidin-1-yl)-4-(2-chloroacetamido)-5-oxopentanoate] (ClAc-E(OMe)[Pip]W[Cit]-NH2), the Ki turned out to be 0.074 µM.
Next, `NC(=O)CC[C@H](NC(=O)[C@H](Cc1ccc2ccccc2c1)NC(=O)[C@@H]1CCCCN1C(=O)[C@@H](CC(=O)O)NC(=O)CCl)C(N)=O` [Compound 2-1, (R)-3-(2-Chloroacetamido)-4-((S)-2-(((S)-1-(((S)-1,5-diamino-1,5-dioxopentan-2-yl)amino)-3-(naphthalen-2-yl)-1-oxopropan-2-yl)carbamoyl)piperidin-1-yl)-4-oxobutanoic acid] (ClAc-[dD][Pip][2Nal]Q-NH2): greater than 10 µM; `NC(=O)CC[C@H](NC(=O)[C@H](Cc1ccc2ccccc2c1)NC(=O)[C@@H]1CCCCN1C(=O)[C@H](CC(=O)O)NC(=O)CCl)C(N)=O` [Compound 2-2, (S)-3-(2-Chloroacetamido)-4-((S)-2-(((S)-1-(((S)-1,5-diamino-1,5-dioxopentan-2-yl)amino)-3-(naphthalen-2-yl)-1-oxopropan-2-yl)carbamoyl)piperidin-1-yl)-4-oxobutanoic acid] (ClAc-D[Pip][2Nal]Q-NH2): greater than 10 µM; `CS(=O)(=O)CC[C@H](NC(=O)CCl)C(=O)N1CCCC[C@H]1C(=O)N[C@@H](Cc1ccc2ccccc2c1)C(=O)N[C@@H](CCC(N)=O)C(N)=O` [Compound 2-3, (S)-2-((S)-2-((S)-1-((S)-2-(2-Chloroacetamido)-4-(methylsulfonyl)butanoyl)piperidine-2-carboxamido)-3-(naphthalen-2-yl)propanamido)pentanediamide] (ClAc-[Met(O2)][Pip][2Nal]Q-NH2): greater than 10 µM.
As for `C[C@H](OP(=O)(O)O)[C@H](NC(=O)CCl)C(=O)N1CCCC[C@H]1C(=O)N[C@@H](Cc1ccc2ccccc2c1)C(=O)N[C@@H](CCC(N)=O)C(N)=O` [Compound 2-4, (2S,3S)-3-(2-Chloroacetamido)-4-((S)-2-(((S)-1-(((S)-1,5-diamino-1,5-dioxopentan-2-yl)amino)-3-(naphthalen-2-yl)-1-oxopropan-2-yl)carbamoyl)piperidin-1-yl)-4-oxobutan-2-yl dihydrogen phosphate] (ClAc-[alloThr(PO3H2)][Pip][2Nal]Q-NH2), the Ki is 1.24 µM.
As for `C[C@H](OP(=O)(O)O)[C@H](NC(=O)CCl)C(=O)N1CCCC[C@H]1C(=O)N[C@@H](Cc1ccc2ccccc2c1)C(=O)N[C@@H](CCCNC(=N)N)C(N)=O` [Compound 2-5, (2S,3S)-4-((S)-2-(((S)-1-(((S)-1-Amino-5-guanidino-1-oxopentan-2-yl)amino)-3-(naphthalen-2-yl)-1-oxopropan-2-yl)carbamoyl)piperidin-1-yl)-3-(2-chloroacetamido)-4-oxobutan-2-yl dihydrogen phosphate] (ClAc-[alloThr(PO3H2)][Pip][2Nal]R-NH2), the Ki was determined as 0.13 µM.
Next, `C[C@H](O)[C@H](NC(=O)[C@H](Cc1ccc2ccccc2c1)NC(=O)[C@@H]1CCCCN1C(=O)[C@H](CCC(=O)O)NC(=O)CCl)C(N)=O` [Compound 2-7, (S)-5-((S)-2-(((S)-1-(((2S,3S)-1-Amino-3-hydroxy-1-oxobutan-2-yl)amino)-3-(naphthalen-2-yl)-1-oxopropan-2-yl)carbamoyl)piperidin-1-yl)-4-(2-chloroacetamido)-5-oxopentanoic acid] (ClAc-E[Pip][2Nal][aThr]-NH2): 0.3 µM.
